Earlier results on 2 molecules are cited in patent US9322040B2, “Pseudonocardia sp. and method for preparing deoxynyboquinone by utilizing same” (SOUTH CHINA SEA INSTITUTE OF OCEANOLOGY, CHINESE ACADEMY OF …, priority 2011, dated 2016).

The subject of the data set is cancer cell.

Regarding `Cc1cc(=O)[nH]c2c1C(=O)c1c(C)cc(=O)n(C)c1C2=O` [Deoxynyboquinone], the cytotoxin activity entry is “significant cytotoxin activity”. Also, the “activity under anoxic conditions” value (anoxic conditions) is given as “stronger activity can be still shown under anoxic conditions”. Regarding `Cc1cc(=O)n(C)c2c1C(=O)c1c(C)cc(=O)n(C)c1C2=O` [SCH 538415, reference compound], the “activity relative to Deoxynyboquinone” value (compared with the activity of Deoxynyboquinone) is given as 10 times weaker.
